From patent US9340577B2, “HLA binding motifs and peptides and their uses” (priority 1992, dated 2016)
No end group written: not given here.

What was measured:
[1] = target: DRB1*1201 (Homo sapiens, UniProt P01903+P01911, A100R/A169T/D57E/D86V/F55L/H45Y/K41T/L162R/M171V/P40S/Q125H/Q178H/Q39Y/Q99D/R42G/S66L/T262R/V114A/V67L/W38E/Y59H/Y61H/Y89S); assay: biochemical; type: binding
[2] = target: DRB1*1101 (Homo sapiens, UniProt P01903+P01911, A100R/A169T/A87E/I96F/K41T/L162R/M171V/P40S/Q125H/Q178H/Q39Y/Q99D/R42S/S66Y/T262R/V115G/W38E); assay: biochemical; conditions: Binding affinity DRB1 *1101
Chain of DRB1*1101 (P01903 26-254 limits assumed, other chains not shown): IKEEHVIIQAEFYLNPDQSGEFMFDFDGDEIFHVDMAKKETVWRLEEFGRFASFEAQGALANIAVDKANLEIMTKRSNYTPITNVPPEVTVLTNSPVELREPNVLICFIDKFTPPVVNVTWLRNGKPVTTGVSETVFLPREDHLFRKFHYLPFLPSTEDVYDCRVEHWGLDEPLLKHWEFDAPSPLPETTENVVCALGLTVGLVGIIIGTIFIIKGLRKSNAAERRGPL

| Compound | IC50 [1] [nM] | IC50 [2] [nM] |
| --- | --- | --- |
| CC[C@H](C)[C@H](NC(=O)[C@H](CS)NC(=O)[C@H](Cc1c[nH]cn1)NC(=O)[C@H](C)NC(=O)[C@H](C)NC(=O)[C@@H](NC(=O)[C@H](CC(C)C)NC(=O)[C@@H](NC(=O)[C@H](Cc1c[nH]c2ccccc12)NC(=O)[C@H](CCC(N)=O)NC(=O)[C@@H]1CCCN1C(=O)[C@@H](N)Cc1c[nH]cn1)C(C)C)[C@@H](C)O)C(=O)N[C@@H](CCCNC(=N)N)C(=O)N[C@@H](CC(N)=O)C(=O)N[C@@H](CCCCN)C(=O)O [Peptide 68.0064] | 5790 | – |
| CSCC[C@H](NC(=O)[C@H](CC(C)C)NC(=O)[C@H](CC(=O)O)NC(=O)[C@@H](N)Cc1c[nH]cn1)C(=O)N[C@@H](CC(C)C)C(=O)N[C@@H](CC(C)C)C(=O)N[C@@H](CCCNC(=N)N)C(=O)N[C@@H](CC(C)C)C(=O)N[C@@H](CO)C(=O)N[C@@H](CCC(=O)O)C(=O)N1CCC[C@H]1C(=O)N[C@@H](C)C(=O)N[C@@H](CCC(=O)O)C(=O)N[C@@H](CC(C)C)C(=O)N[C@H](C(=O)O)[C@@H](C)O [Peptide 68.0073] | 520 | – |
| CC[C@H](C)[C@H](NC(=O)[C@H](CCC(N)=O)NC(=O)[C@@H](NC(=O)[C@H](Cc1ccccc1)NC(=O)[C@H](CC(N)=O)NC(=O)[C@H](Cc1ccc(O)cc1)NC(=O)[C@H](CC(C)C)NC(=O)[C@H](Cc1ccccc1)NC(=O)[C@@H](N)CCCCN)[C@@H](C)O)C(=O)N1CCC[C@H]1C(=O)N[C@@H](Cc1c[nH]cn1)C(=O)N[C@@H](CC(C)C)C(=O)N[C@@H](C)C(=O)NCC(=O)N[C@H](C(=O)O)[C@@H](C)O [Peptide 68.0087] | 1240 | – |
| CSCC[C@H](NC(=O)[C@H](CC(C)C)NC(=O)[C@@H]1CCCN1C(=O)[C@@H](NC(=O)[C@@H](N)CS)[C@@H](C)O)C(=O)N[C@@H](Cc1ccc(O)cc1)C(=O)N[C@@H](CO)C(=O)N[C@@H](CC(C)C)C(=O)N[C@H](C(=O)N[C@@H](Cc1c[nH]cn1)C(=O)N[C@@H](CC(N)=O)C(=O)N[C@@H](CC(C)C)C(=O)N[C@H](C(=O)N[C@@H](CCCCN)C(=O)N[C@@H](CCC(=O)O)C(=O)O)[C@@H](C)O)C(C)C [Peptide 68.0113] | 1730 | – |
| CC[C@H](C)[C@H](NC(=O)[C@H](CO)NC(=O)[C@H](CC(N)=O)NC(=O)[C@H](C)NC(=O)[C@H](CC(C)C)NC(=O)[C@H](CCC(=O)O)NC(=O)[C@H](Cc1ccccc1)NC(=O)[C@@H](NC(=O)[C@H](CCSC)NC(=O)CN)C(C)C)C(=O)N[C@H](C(=O)N[C@@H](CC(C)C)C(=O)N1CCC[C@H]1C(=O)N[C@@H](Cc1ccccc1)C(=O)N[C@@H](CC(=O)O)C(=O)O)C(C)C [Peptide 68.0123] | 98 | > 20000 |
| CSCC[C@H](NC(=O)[C@H](CC(C)C)NC(=O)[C@H](CCC(N)=O)NC(=O)[C@H](CC(=O)O)NC(=O)[C@H](CC(N)=O)NC(=O)[C@H](CCSC)NC(=O)[C@H](CCSC)NC(=O)[C@H](CCCNC(=N)N)NC(=O)[C@H](CC(C)C)NC(=O)[C@@H](N)C(C)C)C(=O)N[C@@H](Cc1ccccc1)C(=O)N[C@@H](CC(C)C)C(=O)N[C@@H](CCC(=O)O)C(=O)N[C@@H](CCCNC(=N)N)C(=O)N[C@@H](C)C(=O)O [Peptide 68.0130] | 98 | – |
| CC[C@H](C)[C@H](NC(=O)[C@H](Cc1ccccc1)NC(=O)[C@H](C)NC(=O)[C@H](CCCNC(=N)N)NC(=O)[C@H](CCC(=O)O)NC(=O)[C@H](CC(C)C)NC(=O)[C@H](Cc1ccccc1)NC(=O)[C@H](CCSC)NC(=O)[C@H](CC(C)C)NC(=O)[C@H](CCC(N)=O)NC(=O)[C@@H](N)CC(=O)O)C(=O)N[C@@H](CC(=O)O)C(=O)N1CCC[C@H]1C(=O)N[C@@H](CC(C)C)C(=O)NCC(=O)O [Peptide 68.0181] | 146 | – |
| GAAVVHEIVRSFGTL [Peptide 68.0173] | 517 | – |
| HPQWVLTAAHCLKKN [Peptide 68.0003] | 11500 | – |
| LRMMNDQLMFLERAF [Peptide 68.0131] | 280 | – |
| NSRLLQERGVAYINA [Peptide 68.0176] | 620 | – |
